These results are taken from ChEMBL document CHEMBL1201862, “PubChem BioAssay data set” (2004).

Test systems include SNB-19; EKVX; HL-60; HCC 2998; SK-MEL-28; OVCAR-4; UO-31; Malme-3M; MDA-MB-231; SF-295; T47D; HCT-116; NCI-H522; A549; DU-145; SF-268; CCRF-CEM; MDA-MB-435; NCI-H23.
Holding throughout (test): DTP human tumour cell line panel, 48 h

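Compound exposure: 48 hours, 5 concentrations, 96-well plates. The concentration for 50% growth inhibition is given as GI50.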 The source made the active and inactive calls. No stated cut-off is given here; in the data, active = GI50 up to about 1.1 µM and inactive = higher. A value given as a limit tells only on which side of the number the result lay.

As usually defined, the GI50 is the concentration that inhibits growth by half. With `C1=CC2C=CC(C=C1)P2c1ccccc1` (centres undefined), the GI50 in the test with SNB-19 was > 100 µM (inactive); with EKVX, > 100 µM (inactive); in the test with HL-60, > 100 µM (inactive); in the test with HCC 2998, 0.0175 µM (active); with SK-MEL-28 it was > 100 µM (inactive); with OVCAR-4, > 100 µM (inactive). Besides, the GI50 in the test with UO-31, in the test on Malme-3M, in the test on MDA-MB-231, in the test with SF-295, in the test with T47D and in the test with HCT-116 was > 100 µM (inactive) throughout. The GI50 in the test on NCI-H522, in the test with A549, in the test on DU-145, with SF-268, in the test on CCRF-CEM and in the test with MDA-MB-435 was > 100 µM (inactive) throughout. The GI50 in the test on NCI-H23 was > 100 µM (inactive).

In the case of `C=C1CC/C=C(/C(=O)O)CC[C@H]2[C@@H]1CC2(C)C`, the GI50 with SNB-19, with EKVX, with HL-60, with HCC 2998, in the test with SK-MEL-28 and in the test on OVCAR-4 was > 100 µM (inactive) throughout. In addition, the GI50 with UO-31, in the test on Malme-3M, in the test with MDA-MB-231, in the test on SF-295, in the test on T47D and in the test on HCT-116 was > 100 µM (inactive) each time. Besides, the GI50 with NCI-H522, in the test on A549, in the test on DU-145, in the test on SF-268, in the test with CCRF-CEM and in the test with MDA-MB-435 was > 100 µM (inactive) throughout. Also, in the test on NCI-H23, the GI50 is > 100 µM (inactive).

Consider `Cc1ccc(/N=N/c2ccc(O)c(CN(C)C)c2)cc1`, for which the GI50 in the test on SNB-19 was 36.6 µM (inactive); with EKVX, 22.6 µM (inactive); with HL-60, 18.1 µM (inactive); in the test with HCC 2998, 15.5 µM (inactive); with SK-MEL-28, 20 µM (inactive); in the test on OVCAR-4 it was 22.6 µM (inactive). The GI50 with UO-31 was 16 µM (inactive); in the test with Malme-3M, 16.7 µM (inactive); with MDA-MB-231 it was 20.6 µM (inactive); with SF-295 it was 18.1 µM (inactive); in the test on T47D it was 13.7 µM (inactive); with HCT-116 it was 22.5 µM (inactive). The GI50 in the test with NCI-H522 was 16.7 µM (inactive); in the test on A549, 20.3 µM (inactive); with DU-145, 17.8 µM (inactive); with SF-268 it was 20.2 µM (inactive); in the test on CCRF-CEM, 22.8 µM (inactive); in the test with MDA-MB-435, 17.3 µM (inactive). Besides, the GI50 with NCI-H23 was 36.1 µM (inactive).

Turning to `O=C1CCN2c3ccccc3[C@H]3Cc4cccc(c4[C@@H]2C3)CCO1`, the GI50 in the test on SNB-19 is 86.9 µM (inactive); with EKVX, 38.5 µM (inactive); in the test with HL-60 it was 25.5 µM (inactive); with HCC 2998, > 100 µM (inactive); in the test with SK-MEL-28, 56.4 µM (inactive); in the test with OVCAR-4, 57.1 µM (inactive). Moreover, the GI50 in the test with UO-31 was 22.9 µM (inactive); in the test on Malme-3M it was 25.2 µM (inactive); with MDA-MB-231, 83 µM (inactive); with SF-295, 32.4 µM (inactive); in the test with T47D, 36.7 µM (inactive); in the test with HCT-116 it was 21.6 µM (inactive). Moreover, the GI50 in the test with NCI-H522 was 28.4 µM (inactive); in the test on A549, 33.9 µM (inactive); in the test on DU-145 it was 68.4 µM (inactive); with SF-268, 72.4 µM (inactive); in the test with CCRF-CEM, 28.8 µM (inactive); in the test on MDA-MB-435, 40.4 µM (inactive). Also, the GI50 with NCI-H23 was 35.3 µM (inactive).

As to `CCO/N=C\c1ccc2oc(-c3ccccc3)cc(=O)c2c1`, the GI50 was 0.48 µM (active) in the test on SNB-19; 3.03 µM (inactive) with EKVX; 0.135 µM (active) in the test with HL-60; 0.31 µM (active) in the test with HCC 2998; 28.8 µM (inactive) in the test with SK-MEL-28; 5.51 µM (inactive) in the test on OVCAR-4. For the same compound, the GI50 in the test on UO-31 was 0.394 µM (active); in the test on Malme-3M, 0.184 µM (active); in the test with MDA-MB-231 it was 0.557 µM (active); in the test with SF-295 it was 0.191 µM (active); in the test on T47D, 27.5 µM (inactive); with HCT-116, 0.181 µM (active). Besides, the GI50 is 0.0247 µM (active) in the test with NCI-H522; 0.417 µM (active) with A549; 0.502 µM (active) in the test with DU-145; 0.74 µM (active) in the test on SF-268; 0.228 µM (active) in the test with CCRF-CEM; 0.0133 µM (active) in the test on MDA-MB-435. Moreover, the GI50 in the test on NCI-H23 is 0.476 µM (active).

As for `Clc1ccc(C(Cc2cccc(Cl)c2)c2c(Cl)nc(N3CCNCC3)nc2Cl)cc1` (centres undefined), the GI50 in the test with SNB-19 is 16.9 µM (inactive); with EKVX it was 0.128 µM (active); in the test on HL-60, 11.1 µM (inactive); in the test on HCC 2998, 15.1 µM (inactive); in the test with SK-MEL-28 it was 19.5 µM (inactive); in the test with OVCAR-4 it was 16.5 µM (inactive). Besides, the GI50 in the test with UO-31 is 12.9 µM (inactive); with Malme-3M, 13.6 µM (inactive); in the test on MDA-MB-231, 13.5 µM (inactive); with SF-295, 16.8 µM (inactive); with T47D, 16.4 µM (inactive); in the test on HCT-116 it was 13.2 µM (inactive). Moreover, the GI50 in the test on NCI-H522 is 14.8 µM (inactive); in the test with A549 it was 16 µM (inactive); in the test with DU-145, 19.7 µM (inactive); with CCRF-CEM, 15.3 µM (inactive); with MDA-MB-435, 16.7 µM (inactive); in the test with NCI-H23, 19 µM (inactive).

As for `CN1CCCC2C(c3ccccc3)C(C3=NCCCC3)C(c3ccccc3)CC21` (centres undefined), the GI50 in the test on SNB-19 is > 100 µM (inactive); in the test with EKVX, 71 µM (inactive); in the test with HL-60, 31.8 µM (inactive); with HCC 2998 it was 15.6 µM (inactive); with SK-MEL-28 it was 16.2 µM (inactive); in the test with OVCAR-4, 73.6 µM (inactive). Moreover, the GI50 was 19.6 µM (inactive) in the test on Malme-3M; 51.2 µM (inactive) in the test with MDA-MB-231; 49.2 µM (inactive) in the test on SF-295; > 100 µM (inactive) in the test with T47D; 15.9 µM (inactive) with HCT-116; 17 µM (inactive) with NCI-H522. Moreover, the GI50 is > 100 µM (inactive) in the test with A549; > 100 µM (inactive) with DU-145; 59.3 µM (inactive) in the test on SF-268; 35.2 µM (inactive) in the test with CCRF-CEM; 19.5 µM (inactive) with MDA-MB-435; 64.7 µM (inactive) with NCI-H23.

As to `COC(=O)c1ccccc1NC(=S)NN(C)C`, the GI50 with SNB-19, with EKVX, with HL-60, in the test with HCC 2998, in the test on SK-MEL-28 and in the test with OVCAR-4 was > 100 µM (inactive) throughout. Moreover, the GI50 in the test with UO-31, with Malme-3M, in the test with MDA-MB-231, in the test with SF-295, with T47D and in the test on HCT-116 was > 100 µM (inactive) in each case. The GI50 in the test on NCI-H522, with A549, in the test with DU-145, in the test with CCRF-CEM, in the test on MDA-MB-435 and in the test with NCI-H23 was > 100 µM (inactive) throughout.
